The values that follow come from patent publication US20260217687A1 (NeoPhore Limited, priority 2023, published 2026).

Where only a bound is given, the exact number is not on record here.

The assay concerns the target T1, recombinant N-terminal MLH1 (residues 15-340) (Homo sapiens, UniProt P40692).
T1 construct: recombinant N-terminal MLH1 (residues 15-340)
T1 sequence (P40692 15-340): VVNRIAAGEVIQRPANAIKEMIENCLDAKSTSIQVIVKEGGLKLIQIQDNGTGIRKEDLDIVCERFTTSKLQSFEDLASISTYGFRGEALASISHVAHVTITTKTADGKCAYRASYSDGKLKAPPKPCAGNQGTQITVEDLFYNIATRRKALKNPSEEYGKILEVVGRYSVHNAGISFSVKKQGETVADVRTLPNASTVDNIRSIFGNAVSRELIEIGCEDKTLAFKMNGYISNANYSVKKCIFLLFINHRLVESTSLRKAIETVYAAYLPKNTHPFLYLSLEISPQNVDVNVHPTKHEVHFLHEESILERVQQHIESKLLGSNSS
The experiment in a line: Fluorescence Polarisation Assay for MLH1. Format: binding. Particulars: 100 nM N-terminal MLH1, 5 nM probe compound. The protocol:
Fluorescence Polarisation Assay for MLH1
Test compounds, as 10 mM DMSO stocks, were dispensed into a 384-well Low Flange Black Flat Bottom Polystyrene Non-binding Surface plate (Corning®, item number 3575) using a Labcyte Echo acoustic liquid handler. […] 20 μL of a 2× solution (200 nM) of recombinant N-terminal MLH1 (residues 15-340) in assay buffer (25 mM HEPES, pH 7.5, 250 mM NaCl, 10 mM MgCl2, 0.01% Triton X-100, 5 mM Dithiothreitol) was added to all wells in columns 1-23 and 20 μL assay buffer was added to all wells in column 24 using an E1-ClipTip pipette (ThermoFisher). Plates were centrifuged for 1 minute at 250 xg and were incubated at room temperature for 30 minutes prior to the addition of 20 μL of 2×(10 nM) of 5-((5-(4-((2-(2-(Benzyloxy)-4,6-dihydroxybenzoyl)isoindolin-5-yl)methyl)piperazin-1-yl)pentyl)carbamoyl)-2-(6-(dimethylamino)-3-(dimethyliminio)-3H-xanthen-9-yl)benzoate (referred to hereinafter as “probe compound”) in assay buffer (prepared from a 1 mM DMSO stock) with an E1-ClipTip pipette (ThermoFisher). The final concentration of N-terminal MLH1 was 100 nM and the final concentration of the probe compound was 5 nM. Compound plates were centrifuged for 1 minute at 250 xg for 1 minute and immediately read on a PheraStar FSX (fitted with 384-well aperture spoon and 590 675 675 FP optic module). The gain and focus were adjusted before each plate was read so that the polarisation of a no enzyme control (column 24) was equal to 35 mP. Data were normalised against the no inhibitor controls (column 23) and no enzyme controls (column 24).
Background: In fluorescence polarisation assays a small probe gives low polarisation when free and higher when bound to something large.

For the compound `CNc1cccc2c1CN(C(=O)c1c(O)cc(C(F)F)cc1OCc1ccccc1)CC2` [Example 4.36, (2-(Benzyloxy)-4-(difluoromethyl)-6-hydroxyphenyl)(8-(methylamino)-3,4-dihydroisoquinolin-2(1H)-yl)methanone], the IC50 (usually the concentration needed to halve the response being measured) is 1000 to 10000 nM.
As for `COCCNc1cccc2c1CN(C(=O)c1c(O)cc(C(F)F)cc1OCc1ccccc1)CC2` [Example 4.37, (2-(Benzyloxy)-4-(difluoromethyl)-6-hydroxyphenyl)(8-((2-methoxyethyl)amino)-3,4-dihydroisoquinolin-2(1H)-yl)methanone], the IC50 was 1000 to 10000 nM.
For `COc1ccc2c(c1)CN(C(=O)c1c(O)cc(C(F)F)cc1OCc1ccccc1)CC2` [Example 4.38, (2-(Benzyloxy)-4-(difluoromethyl)-6-hydroxyphenyl)(7-methoxy-3,4-dihydroisoquinolin-2(1H)-yl)methanone], the IC50 lay in the range of 1000 to 10000 nM.
`COc1ccc2c(c1)CCN(C(=O)c1c(O)cc(C(F)F)cc1OCc1ccccc1)C2` [Example 4.39, (2-(Benzyloxy)-4-(difluoromethyl)-6-hydroxyphenyl)(6-methoxy-3,4-dihydroisoquinolin-2(1H)-yl)methanone]: the IC50 was in the range of 1000 to 10000 nM.
Regarding `CN(C)CCOc1ccc2c(c1)CN(C(=O)c1c(O)cc(C(F)F)cc1OCc1ccccc1)CC2` [Example 4.40, (2-(Benzyloxy)-4-(difluoromethyl)-6-hydroxyphenyl)(7-(2-(dimethylamino)ethoxy)-3,4-dihydroisoquinolin-2(1H)-yl)methanone], the IC50 is 100 to 1000 nM.
Take `CN(C)Cc1ccc2c(c1)CN(C(=O)c1c(O)cc(C(F)F)cc1OCc1ccccc1)CC2` [Example 4.42, (2-(Benzyloxy)-4-(difluoromethyl)-6-hydroxyphenyl)(7-((dimethylamino)methyl)-3,4-dihydroisoquinolin-2(1H)-yl)methanone]: the IC50 lay within 100 to 1000 nM.
As for `CN(C)Cc1ccc2c(c1)CCN(C(=O)c1c(O)cc(C(F)F)cc1OCc1ccccc1)C2` [Example 4.43, (2-(Benzyloxy)-4-(difluoromethyl)-6-hydroxyphenyl)(6-((dimethylamino)methyl)-3,4-dihydroisoquinolin-2(1H)-yl)methanone], the IC50 was 100 to 1000 nM.
As for `CN1CCC(Oc2ccc3c(c2)CN(C(=O)c2c(O)cc(C(F)F)cc2OCc2ccccc2)CC3)CC1` [Example 4.44, (2-(Benzyloxy)-4-(difluoromethyl)-6-hydroxyphenyl)(7-((1-methylpiperidin-4-yl)oxy)-3,4-dihydroisoquinolin-2(1H)-yl)methanone], the half-maximal inhibitory concentration (IC50) was 100 to 1000 nM.
Regarding `CN1CCC(Oc2ccc3c(c2)CCN(C(=O)c2c(O)cc(C(F)F)cc2OCc2ccccc2)C3)CC1` [Example 4.45, (2-(Benzyloxy)-4-(difluoromethyl)-6-hydroxyphenyl)(6-((1-methylpiperidin-4-yl)oxy)-3,4-dihydroisoquinolin-2(1H)-yl)methanone], the half-inhibitory concentration (IC50) lay within 100 to 1000 nM.
For `CN1CCN(Cc2ccc3c(c2)CN(C(=O)c2c(O)cc(C(F)F)cc2OCc2ccccc2)CC3)CC1` [Example 4.46, (2-(Benzyloxy)-4-(difluoromethyl)-6-hydroxyphenyl)(7-((4-methylpiperazin-1-yl)methyl)-3,4-dihydroisoquinolin-2(1H)-yl)methanone], the 50% inhibitory concentration (IC50) was in the range of 100 to 1000 nM.
Take `CN1CCN(Cc2ccc3c(c2)CCN(C(=O)c2c(O)cc(C(F)F)cc2OCc2ccccc2)C3)CC1` [Example 4.47, (2-(Benzyloxy)-4-(difluoromethyl)-6-hydroxyphenyl)(6-((4-methylpiperazin-1-yl)methyl)-3,4-dihydroisoquinolin-2(1H)-yl)methanone]: the IC50 was in the range of 100 to 1000 nM.
In the case of `O=C(c1c(O)cc(C(F)F)cc1OCc1ccccc1)N1CCc2ccc(Cn3ccnc3)cc2C1` [Example 4.48, (7-((1H-Imidazol-1-yl)methyl)-3,4-dihydroisoquinolin-2(1H)-yl)(2-(benzyloxy)-4-(difluoromethyl)-6-hydroxyphenyl)methanone] it was 100 to 1000 nM; in that of `O=C(c1c(O)cc(C(F)F)cc1OCc1ccccc1)N1CCc2cc(Cn3ccnc3)ccc2C1` [Example 4.49, (6-((1H-Imidazol-1-yl)methyl)-3,4-dihydroisoquinolin-2(1H)-yl)(2-(benzyloxy)-4-(difluoromethyl)-6-hydroxyphenyl)methanone], 100 to 1000 nM; in that of `O=C(c1c(O)cc(C(F)F)cc1OCc1ccccc1)N1Cc2ccc(Cn3ccnc3)cc2C1` [Example 4.50, (5-((1H-Imidazol-1-yl)methyl)isoindolin-2-yl)(2-(benzyloxy)-4-(difluoromethyl)-6-hydroxyphenyl)methanone], 100 to 1000 nM.
Regarding `CN(C)Cc1ccc2c(c1)CN(C(=O)c1c(O)cc(C(F)F)cc1OCc1ccccc1)C2` [Example 4.51, (2-(Benzyloxy)-4-(difluoromethyl)-6-hydroxyphenyl)(5-((dimethylamino)methyl)isoindolin-2-yl)methanone], the IC50 lay within 100 to 1000 nM.
For `CN(C)Cc1ccc2c(n1)CN(C(=O)c1c(O)cc(C(F)F)cc1OCc1ccccc1)C2` [Example 4.52, (2-(Benzyloxy)-4-(difluoromethyl)-6-hydroxyphenyl)(2-((dimethylamino)methyl)-5,7-dihydro-6H-pyrrolo[3,4-b]pyridin-6-yl)methanone], the IC50 was 100 to 1000 nM.
In the case of `O=C(c1c(O)cc(C(F)F)cc1OCc1ccccc1)N1Cc2ccccc2C1` [Example 4.54, (2-(Benzyloxy)-4-(difluoromethyl)-6-hydroxyphenyl)(isoindolin-2-yl)methanone] it was 1000 to 10000 nM.
Take `CN1CC[C@@H](Oc2ccc3c(c2)CN(C(=O)c2c(O)cc(C(F)F)cc2OCc2ccccc2)C3)C1` [Example 4.55, (R)-(2-(Benzyloxy)-4-(difluoromethyl)-6-hydroxyphenyl)(5-((1-methylpyrrolidin-3-yl)oxy)isoindolin-2-yl)methanone]: the IC50 was less than 100 nM.
Under `CN1CC(Oc2ccc3c(c2)CN(C(=O)c2c(O)cc(C(F)F)cc2OCc2ccccc2)C3)C1` [Example 4.57, (2-(Benzyloxy)-4-(difluoromethyl)-6-hydroxyphenyl)(5-((1-methylazetidin-3-yl)oxy)isoindolin-2-yl)methanone] stands less than 100 nM.
Under `CN1CCC(Oc2ccc3c(c2)CN(C(=O)c2c(O)cc(C(F)F)cc2OCc2ccccn2)C3)CC1` [Example 4.58, (4-(Difluoromethyl)-2-hydroxy-6-(pyridin-2-ylmethoxy)phenyl)(5-((1-methylpiperidin-4-yl)oxy)isoindolin-2-yl)methanone] stands 100 to 1000 nM; under `O=C(c1c(O)cc(C(F)F)cc1OCc1ccccc1)N1Cc2ccc(Oc3ccncc3)cc2C1` [Example 4.60, (2-(Benzyloxy)-4-(difluoromethyl)-6-hydroxyphenyl)(5-(pyridin-4-yloxy)isoindolin-2-yl)methanone], 100 to 1000 nM; under `O=C(c1c(O)cc(C(F)F)cc1OCc1ccccc1)N1Cc2ccc(Oc3ccncn3)cc2C1` [Example 4.61], 100 to 1000 nM.
Take `CN1CCC(Oc2cc3c(c(N[C@H]4CCOC4)c2)CN(C(=O)c2c(O)cc(C(F)F)cc2OCc2ccccc2)C3)CC1` [Example 4.62, (S)-(2-(Benzyloxy)-4-(difluoromethyl)-6-hydroxyphenyl)(6-((1-methylpiperidin-4-yl)oxy)-4-((tetrahydrofuran-3-yl)amino)isoindolin-2-yl)methanone]: the IC50 is less than 100 nM.
For `CN1CCC(Oc2cc3c(c(N[C@@H]4CCOC4)c2)CN(C(=O)c2c(O)cc(C(F)F)cc2OCc2ccccc2)C3)CC1` [Example 4.63, (R)-(2-(Benzyloxy)-4-(difluoromethyl)-6-hydroxyphenyl)(6-((1-methylpiperidin-4-yl)oxy)-4-((tetrahydrofuran-3-yl)amino)isoindolin-2-yl)methanone], the half-inhibitory concentration (IC50) was in the range of 100 to 1000 nM.
In the case of `CN1CC[C@H](Oc2ccc3c(c2)CCN(C(=O)c2c(O)cc(C(F)F)cc2OCc2ccccc2)C3)C1` [Example 4.64, (S)-(2-(Benzyloxy)-4-(difluoromethyl)-6-hydroxyphenyl)(6-((1-methylpyrrolidin-3-yl)oxy)-3,4-dihydroisoquinolin-2(1H)yl)methanone], the IC50 lay in the range of 100 to 1000 nM.
Turning to `CN1CC[C@@H](Oc2ccc3c(c2)CCN(C(=O)c2c(O)cc(C(F)F)cc2OCc2ccccc2)C3)C1` [Example 4.65, (R)-(2-(Benzyloxy)-4-(difluoromethyl)-6-hydroxyphenyl)(6-((1-methylpyrrolidin-3-yl)oxy)-3,4-dihydroisoquinolin-2(1H)yl)methanone], the half-inhibitory concentration (IC50) was 100 to 1000 nM.
